Results taken from article PMC7356761 (Molecules, 2020).
Entries after “also recorded” stand apart in the source; their conditions may differ.

Key:
[1] = test system: H3255 cells (L858R active mutant EGFR); test: Cellular uptake study, H3255; type: cell-based, human
Protocol: 3.8. Cellular Uptake Studies
Then, the cell culture was incubated in a serum-free medium containing [^125I]10 (3.7 kBq/well) for 4 h. The medium from each well was removed and the cells were washed with 1 mL of ice-cold PBS. Finally, all cell fractions were lysed twice with 0.5 mL of 1 M NaOH aqueous solution. The radioactivity of every fraction was determined by an auto well gamma counter. Total cell protein was determined using the Bicinchoninic Acid (BCA) Protein Assay Kit (Nacalai) protocol, which uses bovine serum albumin as a standard reference. […]. All data were expressed as percent dose per milligram of protein (% dose/mg protein) ± SD.

[2] = Biodistribution in tumor-bearing mice, normal tissues; type: in vivo, mouse
Protocol: Male ddY mice (27–30 g, 6 weeks old) and female BALB/c nu/nu mice (12–17 g, 4 weeks old) were purchased from Japan SLC Inc. (Hamamatsu, Japan). The mice were housed in a cage with free access to food and water maintained at a constant temperature (23–25 °C) with a 12 h light/dark cycle. […] The tumor reached palpable size 2- and 3-weeks post-inoculation. Animal experiments were conducted in accordance with laboratory guidelines for the care and use of animals of Kanazawa University. The animal handling protocol was approved by the Kanazawa University Animal Care Committee (approval number: AP-163766). 3.10. Biodistribution Studies Mice were injected intravenously via the lateral tail vein with a saline solution of [^125I]10 (25 kBq, 100 μL) containing 1% tween-80 and 10% ethanol. The ddY mice were sacrificed at 10 min, 1, 4 and 24 h; meanwhile, the tumor-bearing mice were sacrificed at 1 and 4 h post injection. The selected tissues and organs were collected and weighed and their radioactivity was measured using an auto well gamma counter. […] The mice were sacrificed 1 h after the administration of radiotracer. The biodistribution data are expressed as percent injected dose per gram of tissue (% ID/g) along with the SD.

[3] = In vitro stability in murine plasma; type: in vitro ADME, mouse; details: 37 °C
Protocol: 3.7. In Vitro Stability Experiments
The plasma was prepared by centrifugation of murine blood at 4 °C for 20 min at […]. The reaction was started by the addition of [^125I]10 (20 μL) in the plasma (180 µL). The mixture was incubated in a shaker at 300 rpm at 37 °C, which was carried out three times. Samples (100 µL) were taken at 0, 1 and 24 h and 100 µL acetonitrile, divided into five portions, was added for deproteinization of the plasma. The samples were left in the fridge for 15 min and then centrifuged at 4 °C for 15 min at […]. The supernatant was filtered through a pore size of 0.45 μm, then analyzed by RP-HPLC with a mobile phase gradient system water (A) and methanol (B), B: 70–100%, for 20 min using a Cosmosil® 5C18 MSII (4.6 ID × 150 mm) column at a flow rate of 1 mL/min. The column temperature was maintained at 40 °C. Radioactivity was measured by an auto well gamma counter.

[4] = Blocking (1 h), CO-1686 30 mg/kg i.p. 1 h prior

Biodistribution, Blood [2, 4]: 1.79 (0.21) % ID/g tissue | Biodistribution, Bone [2, 4]: 1.07 (0.36) % ID/g tissue | Biodistribution, Brain [2, 4]: 0.10 (0.02) % ID/g tissue | Biodistribution, Heart [2, 4]: 1.53 (0.58) % ID/g tissue | Biodistribution, Kidney [2, 4]: 4.19 (1.28) % ID/g tissue | Biodistribution, Large intestine [2, 4]: 8.96 (7.48) % ID/g tissue | Biodistribution, Liver [2, 4]: 21.77 (2.83) % ID/g tissue | Biodistribution, Lung [2, 4]: 3.40 (0.93) % ID/g tissue | Biodistribution, Muscle [2, 4]: 1.09 (0.42) % ID/g tissue | Biodistribution, Pancreas [2, 4]: 3.87 (0.87) % ID/g tissue | Biodistribution, Small intestine [2, 4]: 60.68 (6.67) % ID/g tissue | Biodistribution, Spleen [2, 4]: 2.81 (0.77) % ID/g tissue | Biodistribution, Stomach [2, 4]: 1.44 (0.57) % ID/organ | Biodistribution, Blood ([2]; i.v., 1 h): 1.74 (0.18) % ID/g tissue | Biodistribution, Bone ([2]; i.v., 1 h): 0.50 (0.40) % ID/g tissue | Biodistribution, Brain ([2]; i.v., 1 h): 0.11 (0.08) % ID/g tissue | Biodistribution, Heart ([2]; i.v., 1 h): 1.46 (0.31) % ID/g tissue | Biodistribution, Kidney ([2]; i.v., 1 h): 5.26 (1.50) % ID/g tissue | Biodistribution, Large intestine ([2]; i.v., 1 h): 18.65 (19.88) % ID/g tissue | Biodistribution, Liver ([2]; i.v., 1 h): 28.12 (5.43) % ID/g tissue | Biodistribution, Lung ([2]; i.v., 1 h): 4.67 (0.85) % ID/g tissue | Biodistribution, Muscle ([2]; i.v., 1 h): 0.86 (0.21) % ID/g tissue | Biodistribution, Pancreas ([2]; i.v., 1 h): 1.99 (0.52) % ID/g tissue | Biodistribution, Small intestine ([2]; i.v., 1 h): 85.58 (7.68) % ID/g tissue | Biodistribution, Spleen ([2]; i.v., 1 h): 3.20 (0.62) % ID/g tissue | Biodistribution, Stomach ([2]; i.v., 1 h): 1.04 (0.36) % ID/organ | Biodistribution, Blood ([2]; i.v., 4 h): 0.77 (0.07) % ID/g tissue | Biodistribution, Bone ([2]; i.v., 4 h): 0.24 (0.20) % ID/g tissue | Biodistribution, Brain ([2]; i.v., 4 h): 0.04 (0.02) % ID/g tissue | Biodistribution, Heart ([2]; i.v., 4 h): 0.60 (0.67) % ID/g tissue | Biodistribution, Kidney ([2]; i.v., 4 h): 1.62 (0.26) % ID/g tissue | Biodistribution, Large intestine ([2]; i.v., 4 h): 144.21 (10.97) % ID/g tissue | Biodistribution, Liver ([2]; i.v., 4 h): 12.40 (1.06) % ID/g tissue | Biodistribution, Lung ([2]; i.v., 4 h): 1.02 (0.28) % ID/g tissue | Biodistribution, Muscle ([2]; i.v., 4 h): 0.27 (0.08) % ID/g tissue | Biodistribution, Pancreas ([2]; i.v., 4 h): 0.49 (0.12) % ID/g tissue | Biodistribution, Small intestine ([2]; i.v., 4 h): 9.82 (3.17) % ID/g tissue | Biodistribution, Spleen ([2]; i.v., 4 h): 0.71 (0.19) % ID/g tissue | Biodistribution, Stomach ([2]; i.v., 4 h): 0.48 (0.19) % ID/organ | stability in plasma ([3]; 24 h incubation): purity decreased gradually
Structure (SMILES): C=CC(=O)Nc1cc([125I])cc(Nc2nc(Nc3ccc(N4CCN(C(C)=O)CC4)cc3OC)ncc2C(F)(F)F)c1 [[^125I]10]
cell uptake ([1]; H3255, 4 h incubation): 33.52 % dose/mg protein | reduction of accumulation by gefitinib ([1]; H3255, gefitinib 100 µM): over 50% | stability in plasma ([3]; until 1 h): slightly decomposed; also recorded: hardly decomposed
